In patent US20220249564A1, “PDL1 POSITIVE NK CELL CANCER TREATMENT” (City of Hope, priority 2019, published 2022):

Legend:
[1] = tested on: NK cells incubated with K562 cells; test: p38 inhibitors on AZ-induced PD-L1, CD107α and IFN-γ expression of NK cells; assay type: cell-based, human; conditions: presence of K562 tumor cells, 1 μM inhibitor; for AZ-induced PD-L1 expression: FIG. 6H; for AZ-induced CD107α expression of NK cells / AZ-induced IFN-γ expression of NK cells: FIG. 6J
Description: (§1) FIGS. 6A-6J present data showing signaling pathways activating PD-L1^+ NK cells. […] “D1+” represents PD-L1^+ NK cells from donor 1, while “D1−” represents PD-L1^− NK cells from donor 1, each purified by FACS sorting. Similar definitions are applied to “D2+”, “D2−”, “D3+”, and “D3−”. Expression of Cd274 (PD-L1), Cd226, Tbx21, Eomes, Smad3 and Aka are highlighted by black arrows. […] The percentages of PD-L1+ NK cells were measured by flow cytometry. […] Data were generated from five (5) independent donors, and the experiment was repeated three times. […] Relative promoter activity was measured by luciferase assay after 48 hours. […] The experiments were repeated three times. […] The experiments were repeated three times.
Two paired groups were compared by paired t-test. One-way ANOVA with repeated measures or linear mixed model was used to compare three (3) or more donor-matched groups. P values were adjusted by the Holm-Sidak method.
(§2) Cells were suspended in 100 μl PBS with 2% FBS and incubated with the indicated mAb (Table 2) at room temperature for 20 mins. After washing with 2% FBS for one time and PBS for another time, cells were fixed in 1% paraformaldehyde buffer for immediate analysis by flow cytometry using a LSRII flow cytometer (BD Biosciences). Cells used for sorting were re-suspended in RPMI 1640 containing 10% FBS. For intracellular flow cytometry, cells were permeabilized and fixed using the Foxp3/Transcription Factor Fixation/Permeabilization kit (eBioscience, Cat #00-5523-00). Data were analyzed by FlowJo software.

[2] = tested on: PD-L1 expression on NK cells; test: PD-L1 expression on NK cells incubated with K562 cells in the presence of pathway inhibitors; assay type: cell-based, human; conditions: inhibitor 1 μM or 10 μM, FIGS. 6B, 6C
Description: as §1
To investigate mechanisms by which PD-L1 is induced in NK cells by myeloid leukemia cells, an RNA microarray was performed to profile gene expression in PD-L1^+ NK cells vs PD-L1^− NK cells, both of which were FACS-purified from bulk NK cells after being co-cultured with K562 cells. […] They were subsequently incubated with K562 myeloid leukemia cells and then PD-L1 expression on NK cells was measured. […] A PD-L1 promoter was cloned 2.1 kb upstream of the transcription start site, co-transfected with genes for specific transcription factors in 293T cells, and the activity of the PD-L1 promoter was measured by luciferase assay. […]

[3] = tested on: PD-L1 expression on expanded human primary NK cells; test: PD-L1 expression on expanded human primary NK cells with AZ; assay type: cell-based; conditions: expanded 7 days with K562 feeder cells, with or without 5 ng/ml IL-12 and IL-18 for 20 h; FIG. 15
Description: Expanded human primary NK cells for 7 days with indicated medium (R10: RPMI1640+10% FBS; MACS: MACS medium+5% human serum; SCGM: SCGM medium+5% human serum) were treated with or without 5 ng/ml IL-12 and IL-18 for 20 h in the presence of AZ or not. The expression of PD-L1 were examined by flow cytometry. P values of multiple comparison were analyzed using one-way ANOVA. Multiple comparison test was adjusted by Holm-Sidak method. ****, P<0.0001.
Expanded human primary NK cells for 7 days with indicated medium (R10: RPMI1640+10% FBS; MACS: MACS medium+5% human serum; SCGM: SCGM medium+5% human serum) were treated with or without 5 ng/ml IL-12 and IL-18 for 20 h in the presence of AZ or not. The expression of PD-L1 were examined by flow cytometry (FIG. 15). PBMC from lung cancer patients were isolated and examined for PD-L1 expression by flow cytometry (FIG. 16).

[4] = tested on: p38, p-ERK, p-AKT, p-mTOR in NK cells; test: Downstream kinase phosphorylation in NK cells after AZ (intracellular flow cytometry, immunoblot); assay type: cell-based, human; conditions: NK cells with K562 cells, AZ treatment
Description: as §1
FIG. 13 presents data showing induction of p38-NF-κB signaling in primary human NK cells by the anti-PD-L1 antibody AZ. […] The histograms provided in the upper panel represent quantification of various phosphorylated kinases expressed in NK cells, followed by a graphical summary of the data (n=3) below each histogram. One-way ANOVA with repeated measures or linear mixed model was used to compare three (3) or more donor-matched groups and P values were adjusted by the Holm-Sidak method. ****, P<0.0001; NS=not significant.
as §2
Cells were pelleted and lysed in protein extraction reagent (Thermo Fisher, Cat. #78510) supplied with proteinase inhibitors. Standard procedures were used for immunoblotting. Primary antibodies used were PD-L1 (Cell Signaling Technology, Cat. #13684), GAPDH (Cell Signaling Technology, Cat. #2118), β-actin (Cell Signaling Technology, Cat. #4967), p-p38 (Cell Signaling Technology, Cat. #9211) and p-AKT (Cell Signaling Technology, Cat. #9271). Proteins were detected using goat anti-rabbit HRP-conjugated secondary antibodies (Cell Signaling Technology, Cat. #7074).

ADCC = conditions: Fc domain modification; cited from earlier work
[5] = tested on: PD-L1 expression on NK cells; test: PD-L1 expression of K562-pretreated NK cells after AZ (qRT-PCR, flow cytometry); assay type: cell-based, human; conditions: time dependent
Description: (§3) FIGS. 3A-3D present data showing that anti-PD-L1 monoclonal antibody atezolizumab (AZ) activates PD-L1 signaling in NK cells and enhances NK cell function. […] The P values were corrected for multiple comparisons by Holm's method. […] The experiment was repeated three times with three different donors. […] NK cells were sorted and the relative levels of PD-L1 mRNA expression were measured by qRT-PCR. The experiment was repeated three times. […] Two paired groups were compared by paired t-test. One-way ANOVA with repeated measures or linear mixed model was used to compare three (3) or more donor-matched groups. P values were adjusted by the Holm-Sidak method.
as §2, with “software. […]” for “software.”

[6] = tested on: PD-L1-KO K562 myeloid leukemia cells; test: NSG mouse model with human primary NK cells and PD-L1-KO K562 cells; assay type: in vivo, NSG mice
Excerpt: After 6 days, mice were sacrificed and NK cells were isolated and assessed for PD-L1 expression by flow cytometry. […] PBS instead of IgG1 was used as placebo because AZ lacks antibody-dependent cellular cytotoxicity activity. After 6 days (three treatments), mice were sacrificed and human NK cells were examined for their expression of granzyme B, CD107α, and IFN-γ, while the number of PD-L1-knockout K562 myeloid leukemia cells (as shown in FIG. 5C) was enumerated by flow cytometry. […] Two paired groups were compared by paired t-test. One-way ANOVA with repeated measures or linear mixed model was used to compare three (3) or more donor-matched groups. P values were adjusted by the Holm-Sidak method. Kaplan-Meier method was used to estimate survival functions and log-rank test was applied to group comparisons.
8-week old NSG mice were intravenously (i.v.) injected with PD-L1 knockout K562 myeloid leukemia cells at a concentration of 2 million cells per mouse. […] Mice in the atezolizumab (AZ)-treated or control group were simultaneously i.p-injected with 200 μg AZ in 200 μL PBS or 200 μL PBS per mouse. Cytokines and AZ were injected every other day for a total of […]. The numbers of NK cells and tumor cells were examined at day 6 post injection.

PD-L1+ NK cells = test: NK cell CD107α and IFN-γ expression after AZ treatment (flow cytometry); assay type: cell-based, human
Description: as §3
Peripheral blood samples from healthy donors were obtained from The American Red Cross. Human PBMCs were isolated by Percoll density gradient centrifugation. Primary human NK cells were enriched from the peripheral blood of healthy donors using an NK Cell Enrichment Kit (Miltenyi Biotec, Cat #0.130-115-818). Enriched NK cells with purity about 90% were either sorted by fluorescence-activated cell sorting (FACS) to the purity around 96% and then used or used immediately for in vitro cell culture experiments. […] All cell lines were maintained in RPMI 1640 medium supplemented with 10% FBS and 100 U/ml penicillin/streptomycin. For co-culture stimulation experiments, PBMCs, enriched NK cells, or FACS-sorted NK cells were co-incubated with various cell lines including K562, MOLM-13, AML3, RPMI 8226 or MV-4-11 at an effector/target (E/T) ratio of 10:1. […] For transwell assay experiments, 5×10^5 enriched human primary NK cells were seeded in the upper chamber of a transwell plate. The lower chamber of the transwell plate was seeded with 5×10^4 K562 myeloid leukemia cells. The transwell plate with cells was incubated at 37° C. for 20 hr.
Cells were suspended in 100 μl PBS with 2% FBS and incubated with the indicated mAb (Table 2) at room temperature for 20 mins. […] Data were analyzed by FlowJo software.

[7] = tested on: PD-L1 expression on NK cells; test: Induction of PD-L1 expression on NK cells by NK cell-activating cytokines; assay type: cell-based, human; conditions: alone or in combination with other cytokines, 10 ng/mL, 24 hour; FIG. 11F
Description: The cytotoxicity levels of total NK cells incubated with medium alone were served as control. The cytokine-treated bulk NK cells were permeabilized and gated PD-L1+ and PD-L1^− cells to measure the MFI of IFN-γ by flow cytometry assay as shown in FIG. 11D. […] Summary graph (n=3) is shown at the bottom. […] Summary graph (n=3) is shown at the bottom. Two-sample t test was used for 2-group comparisons. One-way ANOVA was used to compare three (3) or more groups and P values were adjusted by the Holm-Sidak method. **, P<0.01; ***, P<0.001; ****, P<0.0001; NS=not significant.
Peripheral blood samples from healthy donors were obtained from The American Red Cross. Human PBMCs were isolated by Percoll density gradient centrifugation. Primary human NK cells were enriched from the peripheral blood of healthy donors using an NK Cell Enrichment Kit (Miltenyi Biotec, Cat #0.130-115-818). Enriched NK cells with purity about 90% were either sorted by fluorescence-activated cell sorting (FACS) to the purity around 96% and then used or used immediately for in vitro cell culture experiments. NK cells were cultured in RPMI 1640 supplemented with 20% FBS, 100 U/ml penicillin/streptomycin, and 10 ng/ml IL-2. […]
Cells were suspended in 100 μl PBS with 2% FBS and incubated with the indicated mAb (Table 2) at room temperature for 20 mins. […] Data were analyzed by FlowJo software. […]

[8] = vs placebo (PBS), i.p. every other day, after 6 days, FIG. 5B
[9] = NK cells stimulated with PD-L1 knock-out K562 cells 20 hours, then 20 μg/mL AZ 4 hours, FIG. 3A

## Oc1ccc(-c2nc(-c3ccncc3)c(-c3ccc(F)cc3)[nH]2)cc1 [SB202190]
[1]
  AZ-induced PD-L1 expression: reduce
  AZ-induced CD107α expression of NK cells: inhibited
  AZ-induced IFN-γ expression of NK cells: inhibited

## C[S+]([O-])c1ccc(-c2nc(-c3ccncc3)c(-c3ccc(F)cc3)[nH]2)cc1 (stereo not drawn) [SB203580]
[1]
  AZ-induced PD-L1 expression: reduce
  AZ-induced CD107α expression of NK cells: inhibited
  AZ-induced IFN-γ expression of NK cells: inhibited

## Cc1ccc(S(=O)(=O)N[C@@H](Cc2ccccc2)C(=O)CCl)cc1 [TPCK]
[2]
  PD-L1 expression on NK cells: regulation role of p65 in PD-L1 expression was confirmed

## Cn1ncc(Cl)c1-c1cc(C(=O)N[C@H](CN)Cc2cccc(F)c2)sc1Cl [afuresertib]
[2]
  PD-L1 expression on NK cells: significantly reduced

## atezolizumab [AZ]
[3]
  expression of PD-L1 on expanded human primary NK cells: further enhanced
[4]; IL-2 10 ng/mL, FIG. 13, 6G
  level of p38: increased
[4]; FIG. 13
  level of p-ERK: not increased
  level of p-mTOR: not increased
[4]; FIG. 13, 6G
  level of p-AKT: not increased
ADCC
  ADCC effect: absence
[5]; NK cells pretreated with K562, 20 μg/mL AZ, FIG. 3C
  PD-L1 expression of NK cells, mRNA level: further elevated
[5]; NK cells pretreated with K562, AZ, FIG. 3D
  PD-L1 expression of NK cells, protein level: further elevated
[6]; [8]
  NK cell expression of CD107α: significant increase
  NK cell expression of IFN-γ: significant increase
  NK cell expression of granzyme B: significant increase
[6]; vs placebo-treated mice, upon sacrifice, FIG. 5C
  tumor burden (number of PD-L1-KO K562 cells): significantly lower
PD-L1+ NK cells; [9]
  expression of CD107a in PD-L1+ NK cells: increased
  expression of IFN-γ in PD-L1+ NK cells: increased
PD-L1+ NK cells; lentiviral PD-L1-transduced NK cells treated with AZ, FIG. 3B
  IFN-γ production of PD-L1-transduced NK cells: even more dramatically increased

## recombinant IFN-γ: recombinant interferon gamma
[7]
  PD-L1 expression on NK cells: could not induce
